Assay results taken from the NIST ThermoML archive (doi:10.1021/je060496l).
± gives the expanded uncertainty stated by the source.

Tests used:
[1] = 101 kPa, Liquid
[2] = xn = mol fraction of the nth substance listed; settings: 101 kPa, Liquid

OCC(O)CO [glycerol]
mass density ([1]; 298.15 K): 1258.9 ± 2 kg/m3 | mass density ([1]; 303.15 K): 1255.6 ± 2 kg/m3 | mass density ([1]; 308.15 K): 1252.7 ± 2.1 kg/m3 | mass density ([1]; 313.15 K): 1249.5 ± 2.1 kg/m3 | mass density ([1]; 318.15 K): 1246.2 ± 2.2 kg/m3 | mass density ([1]; 323.15 K): 1242.9 ± 2.3 kg/m3 | mass density ([1]; 328.15 K): 1239.6 ± 2.3 kg/m3 | mass density ([1]; 333.15 K): 1236 ± 2.4 kg/m3

OCC(O)CO [glycerol] + CC(C)O
mass density ([2]; 298.15 K, x1 = 0.0676): 813.5 ± 1.2 kg/m3 | mass density ([2]; 298.15 K, x1 = 0.1402): 848.6 ± 1.3 kg/m3 | mass density ([2]; 298.15 K, x1 = 0.2185): 887.5 ± 1.3 kg/m3 | mass density ([2]; 298.15 K, x1 = 0.3031): 929.1 ± 1.4 kg/m3 | mass density ([2]; 298.15 K, x1 = 0.3949): 974.3 ± 1.5 kg/m3 | mass density ([2]; 298.15 K, x1 = 0.4946): 1023.8 ± 1.5 kg/m3 | mass density ([2]; 298.15 K, x1 = 0.6036): 1077 ± 1.6 kg/m3 | mass density ([2]; 298.15 K, x1 = 0.723): 1135.2 ± 1.7 kg/m3 | mass density ([2]; 298.15 K, x1 = 0.8545): 1196.5 ± 1.8 kg/m3 | mass density ([2]; 298.15 K, x1 = 1): 1258.9 ± 2 kg/m3 | mass density ([2]; 303.15 K, x1 = 0.0676): 809.5 ± 1.2 kg/m3 | mass density ([2]; 303.15 K, x1 = 0.1402): 844.7 ± 1.3 kg/m3 | mass density ([2]; 303.15 K, x1 = 0.2185): 883.8 ± 1.4 kg/m3 | mass density ([2]; 303.15 K, x1 = 0.3031): 926.4 ± 1.4 kg/m3 | mass density ([2]; 303.15 K, x1 = 0.3949): 970.6 ± 1.5 kg/m3 | mass density ([2]; 303.15 K, x1 = 0.4946): 1020 ± 1.6 kg/m3 | mass density ([2]; 303.15 K, x1 = 0.6036): 1073.4 ± 1.7 kg/m3 | mass density ([2]; 303.15 K, x1 = 0.723): 1131.9 ± 1.8 kg/m3 | mass density ([2]; 303.15 K, x1 = 0.8545): 1193.4 ± 1.9 kg/m3 | mass density ([2]; 303.15 K, x1 = 1): 1255.6 ± 2 kg/m3 | mass density ([2]; 308.15 K, x1 = 0.0676): 805.5 ± 1.3 kg/m3 | mass density ([2]; 308.15 K, x1 = 0.1402): 840.5 ± 1.4 kg/m3 | mass density ([2]; 308.15 K, x1 = 0.2185): 879.9 ± 1.4 kg/m3 | mass density ([2]; 308.15 K, x1 = 0.3031): 922.3 ± 1.5 kg/m3 | mass density ([2]; 308.15 K, x1 = 0.3949): 967.3 ± 1.6 kg/m3 | mass density ([2]; 308.15 K, x1 = 0.4946): 1016.2 ± 1.7 kg/m3 | mass density ([2]; 308.15 K, x1 = 0.6036): 1070.4 ± 1.8 kg/m3 | mass density ([2]; 308.15 K, x1 = 0.723): 1128.5 ± 1.9 kg/m3 | mass density ([2]; 308.15 K, x1 = 0.8545): 1190 ± 2 kg/m3 | mass density ([2]; 308.15 K, x1 = 1): 1252.7 ± 2.1 kg/m3 | mass density ([2]; 313.15 K, x1 = 0.0676): 801.4 ± 1.4 kg/m3 | mass density ([2]; 313.15 K, x1 = 0.1402): 836.1 ± 1.4 kg/m3 | mass density ([2]; 313.15 K, x1 = 0.2185): 875.9 ± 1.5 kg/m3 | mass density ([2]; 313.15 K, x1 = 0.3031): 918.4 ± 1.5 kg/m3 | mass density ([2]; 313.15 K, x1 = 0.3949): 963.4 ± 1.6 kg/m3 | mass density ([2]; 313.15 K, x1 = 0.4946): 1012.6 ± 1.7 kg/m3 | mass density ([2]; 313.15 K, x1 = 0.6036): 1067 ± 1.8 kg/m3 | mass density ([2]; 313.15 K, x1 = 0.723): 1125 ± 1.9 kg/m3 | mass density ([2]; 313.15 K, x1 = 0.8545): 1186.8 ± 2 kg/m3 | mass density ([2]; 313.15 K, x1 = 1): 1249.5 ± 2.1 kg/m3 | mass density ([2]; 318.15 K, x1 = 0.0676): 796.8 ± 1.4 kg/m3 | mass density ([2]; 318.15 K, x1 = 0.1402): 831.9 ± 1.5 kg/m3 | mass density ([2]; 318.15 K, x1 = 0.2185): 871.7 ± 1.5 kg/m3 | mass density ([2]; 318.15 K, x1 = 0.3031): 914.5 ± 1.6 kg/m3 | mass density ([2]; 318.15 K, x1 = 0.3949): 959.2 ± 1.7 kg/m3 | mass density ([2]; 318.15 K, x1 = 0.4946): 1008.7 ± 1.8 kg/m3 | mass density ([2]; 318.15 K, x1 = 0.6036): 1063.1 ± 1.9 kg/m3 | mass density ([2]; 318.15 K, x1 = 0.723): 1121.3 ± 2 kg/m3 | mass density ([2]; 318.15 K, x1 = 0.8545): 1183.2 ± 2.1 kg/m3 | mass density ([2]; 318.15 K, x1 = 1): 1246.2 ± 2.2 kg/m3 | mass density ([2]; 323.15 K, x1 = 0.0676): 792.2 ± 1.5 kg/m3 | mass density ([2]; 323.15 K, x1 = 0.1402): 827.6 ± 1.5 kg/m3 | mass density ([2]; 323.15 K, x1 = 0.2185): 867.4 ± 1.6 kg/m3 | mass density ([2]; 323.15 K, x1 = 0.3031): 910.2 ± 1.7 kg/m3 | mass density ([2]; 323.15 K, x1 = 0.3949): 955.3 ± 1.8 kg/m3 | mass density ([2]; 323.15 K, x1 = 0.4946): 1004.8 ± 1.9 kg/m3 | mass density ([2]; 323.15 K, x1 = 0.6036): 1059.6 ± 1.9 kg/m3 | mass density ([2]; 323.15 K, x1 = 0.723): 1117.6 ± 2 kg/m3 | mass density ([2]; 323.15 K, x1 = 0.8545): 1180.3 ± 2.2 kg/m3 | mass density ([2]; 323.15 K, x1 = 1): 1242.9 ± 2.3 kg/m3 | mass density ([2]; 328.15 K, x1 = 0.0676): 787.5 ± 1.5 kg/m3 | mass density ([2]; 328.15 K, x1 = 0.1402): 823.3 ± 1.6 kg/m3 | mass density ([2]; 328.15 K, x1 = 0.2185): 863.3 ± 1.6 kg/m3 | mass density ([2]; 328.15 K, x1 = 0.3031): 906.2 ± 1.7 kg/m3 | mass density ([2]; 328.15 K, x1 = 0.3949): 951.3 ± 1.8 kg/m3 | mass density ([2]; 328.15 K, x1 = 0.4946): 1000.9 ± 1.9 kg/m3 | mass density ([2]; 328.15 K, x1 = 0.6036): 1055.7 ± 2 kg/m3 | mass density ([2]; 328.15 K, x1 = 0.723): 1114.1 ± 2.1 kg/m3 | mass density ([2]; 328.15 K, x1 = 0.8545): 1176.6 ± 2.2 kg/m3 | mass density ([2]; 328.15 K, x1 = 1): 1239.6 ± 2.3 kg/m3 | mass density ([2]; 333.15 K, x1 = 0.0676): 782.9 ± 1.6 kg/m3 | mass density ([2]; 333.15 K, x1 = 0.1402): 818.4 ± 1.6 kg/m3 | mass density ([2]; 333.15 K, x1 = 0.2185): 858.8 ± 1.7 kg/m3 | mass density ([2]; 333.15 K, x1 = 0.3031): 901.6 ± 1.8 kg/m3 | mass density ([2]; 333.15 K, x1 = 0.3949): 947.5 ± 1.9 kg/m3 | mass density ([2]; 333.15 K, x1 = 0.4946): 997.2 ± 2 kg/m3 | mass density ([2]; 333.15 K, x1 = 0.6036): 1051.9 ± 2.1 kg/m3 | mass density ([2]; 333.15 K, x1 = 0.723): 1110.5 ± 2.2 kg/m3 | mass density ([2]; 333.15 K, x1 = 0.8545): 1173.1 ± 2.3 kg/m3 | mass density ([2]; 333.15 K, x1 = 1): 1236 ± 2.4 kg/m3

OCC(O)CO [glycerol] + CC(O)CO
mass density ([2]; 298.15 K, x1 = 1): 1258.9 ± 2 kg/m3 | mass density ([2]; 303.15 K, x1 = 1): 1255.6 ± 2 kg/m3 | mass density ([2]; 308.15 K, x1 = 1): 1252.7 ± 2.1 kg/m3 | mass density ([2]; 313.15 K, x1 = 1): 1249.5 ± 2.1 kg/m3 | mass density ([2]; 318.15 K, x1 = 1): 1246.2 ± 2.2 kg/m3 | mass density ([2]; 323.15 K, x1 = 1): 1242.9 ± 2.3 kg/m3 | mass density ([2]; 328.15 K, x1 = 1): 1239.6 ± 2.3 kg/m3 | mass density ([2]; 333.15 K, x1 = 1): 1236 ± 2.4 kg/m3
